One experiment deals with Histamine H1 receptor (Homo sapiens, UniProt P35367). Nature of the experiment: biochemical. The settings on record: for Ki: read-out: pKi (converted); for pKi: read-out: Ki. Format: cell-based, HEK293.
For another experiment, the target named is Histamine H4 receptor (Homo sapiens, UniProt Q9H3N8). Nature of the experiment: Displacement of [3H]histamine from human histamine H4 receptor expressed in HEK293 cells after 1 to 1.5 hrs by scintillation counting. The experiment is classed as cell-based.
Histamine H4 receptor, sequence (Q9H3N8 whole entry): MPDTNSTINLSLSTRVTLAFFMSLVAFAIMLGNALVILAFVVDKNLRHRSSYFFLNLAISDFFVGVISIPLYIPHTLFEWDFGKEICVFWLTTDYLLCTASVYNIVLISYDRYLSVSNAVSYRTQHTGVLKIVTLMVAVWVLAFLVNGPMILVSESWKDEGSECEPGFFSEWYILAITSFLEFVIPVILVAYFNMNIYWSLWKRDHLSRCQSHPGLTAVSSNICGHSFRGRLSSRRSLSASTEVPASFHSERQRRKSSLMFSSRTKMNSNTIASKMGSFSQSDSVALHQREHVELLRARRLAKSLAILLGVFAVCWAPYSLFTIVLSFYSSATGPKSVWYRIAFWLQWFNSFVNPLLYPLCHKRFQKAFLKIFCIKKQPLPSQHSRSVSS
In another experiment the target is Histamine H3 receptor (Homo sapiens, UniProt Q9Y5N1). Nature of the experiment: Displacement of [3H]N-alpha-methylhistamine from human histamine H3 receptor expressed in HEK293 cells after 1 to 1.5 hrs by scintillation counting. Format: cell-based.
Histamine H3 receptor, sequence (Q9Y5N1 whole entry): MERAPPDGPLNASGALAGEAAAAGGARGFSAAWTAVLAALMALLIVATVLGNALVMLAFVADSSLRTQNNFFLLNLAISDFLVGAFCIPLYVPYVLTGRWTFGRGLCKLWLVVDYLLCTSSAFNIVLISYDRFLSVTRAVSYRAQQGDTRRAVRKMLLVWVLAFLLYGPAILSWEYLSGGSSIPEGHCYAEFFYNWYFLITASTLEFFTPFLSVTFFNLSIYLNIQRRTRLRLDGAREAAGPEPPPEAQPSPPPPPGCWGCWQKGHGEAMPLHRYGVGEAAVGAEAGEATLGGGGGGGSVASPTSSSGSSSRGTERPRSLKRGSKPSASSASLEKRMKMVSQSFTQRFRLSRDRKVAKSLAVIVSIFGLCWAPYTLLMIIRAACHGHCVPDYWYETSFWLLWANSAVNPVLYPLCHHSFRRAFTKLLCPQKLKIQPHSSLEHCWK

The values that follow come from ChEMBL document CHEMBL1921782, “Crystal structure-based virtual screening for fragment-like ligands of the human histamine H(1) receptor” (J Med Chem, 2011).

Molecules are shown by their SMILES. pKi: −log10 of the molar value.

Histamine H1 receptor, sequence (P35367 whole entry): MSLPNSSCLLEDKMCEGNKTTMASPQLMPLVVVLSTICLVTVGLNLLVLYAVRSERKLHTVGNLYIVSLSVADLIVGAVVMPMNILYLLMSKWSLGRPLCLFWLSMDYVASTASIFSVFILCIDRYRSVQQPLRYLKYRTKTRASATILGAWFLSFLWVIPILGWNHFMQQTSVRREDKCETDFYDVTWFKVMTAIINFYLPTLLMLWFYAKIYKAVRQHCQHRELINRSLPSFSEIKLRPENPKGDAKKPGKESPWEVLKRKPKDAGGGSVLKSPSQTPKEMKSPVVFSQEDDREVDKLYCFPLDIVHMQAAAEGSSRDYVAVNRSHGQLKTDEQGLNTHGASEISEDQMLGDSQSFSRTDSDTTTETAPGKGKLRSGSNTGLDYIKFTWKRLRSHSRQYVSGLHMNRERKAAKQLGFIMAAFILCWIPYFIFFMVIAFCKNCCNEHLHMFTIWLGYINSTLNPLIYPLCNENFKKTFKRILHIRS

On to `C1CCN(c2nc(N3CCCC3)nc(N3CCNCC3)n2)C1`, for which, on Histamine H1 receptor, the Ki is 1.91 µM. Still for that read-out and setting: to `C=CCn1c(=N)n(CC(=O)c2ccccc2)c2ccccc21` belongs 10.7 µM.

Regarding `c1ccc(Cc2ccccc2OC2CCNCC2)cc1`, the pKi at Histamine H1 receptor is 8.22. For `CN1CCN(c2nc(N3CCCC3)c3cnn(C)c3n2)CC1`, the pKi at Histamine H4 receptor is 5.54; at Histamine H1 receptor it was 7.21. For the compound `NC1=NC(c2ccccc2)n2c(nc3ccccc32)N1` (stereo not given), the Ki on Histamine H1 receptor is 0.427 µM. Still for that read-out and setting: to `CN(C)CCSc1nc2ccccc2c2nnnn12` belongs 0.708 µM; to `OCCN1CCN(c2ncnc3sccc23)CC1`, 0.708 µM; to `CNCC(O)CN1c2ccccc2C2CCCCC21` (stereo not given), 2.29 µM. As to `c1ccc2c(c1)nc1n(CCN3CCCCC3)cnn21`, at Histamine H3 receptor, the pKi was 6.22. Besides, the Ki at Histamine H1 receptor is 2.63 µM. The matching figures for `c1ccc2c(N3CCN(C4CCCC4)CC3)ncnc2c1`: 7.00 and 3.24 µM. As to `c1ccc2c(c1)n(CCN1CCCCC1)c1ncnn21`, the Ki at Histamine H1 receptor was 4.17 µM. For `CC(C)NCc1ccc(-c2ccccc2)o1`, the Ki on Histamine H1 receptor is 4.57 µM.

In turn, `OC(CNC1CC1)Cn1c2ccccc2c2ccccc21` (stereo not given) had a pKi on Histamine H4 receptor of 5.62. Further, the Ki on Histamine H1 receptor was 6.31 µM.

On to `NCCc1ccccc1Oc1ccccc1`, for which the Ki on Histamine H1 receptor was 11 µM.

Regarding `CNCCCOc1cccc2ccccc12`, the Ki at Histamine H1 receptor was 0.794 µM. In the case of `c1cnc2c(c1)cc([C@@H]1CCCO1)n2CCN1CCCCC1`, the Ki at Histamine H1 receptor is 1.78 µM.
